Results taken from patent US20240132484A1, “BROAD SPECTRUM ANTIVIRAL COMPOUNDS TARGETING THE SKI COMPLEX” (priority 2020, published 2024).
Values joined by “and” are separate entries in the source; they are usually repeats but may differ in a detail not shown here. Identical values can stand only once. “Also recorded” adds a separate entry of the source. Like-named read-outs stand apart in the source and are kept apart here.

What was measured:
[1] = system: SARS2; format: cell-based, SARS-CoV-2; details: for Percentage Infection Relative to Appropriate DMSO Control with Avg Background Subtraction: Nunc Celigo plates; for Percentage Inhibition Average 1 μM / Screening data (Relative infection to DMSO controls) Average 1 μM: SARS2, 1 μM; for Screening data (Relative infection to DMSO controls) Average 1 μM / Screening data (Relative infection to DMSO controls) Average 5 μM / Screening data (Relative infection to DMSO controls) Average 10 μM / Screening data (Relative infection to DMSO controls) Average 25 μM / Screening data (Relative infection to DMSO controls) Average 50 μM / Average (relative infection to DMSO over the 5 tested concentrations): 100=DMSO control; for Percentage Inhibition Average 5 μM / Screening data (Relative infection to DMSO controls) Average 5 μM: SARS2, 5 μM; for Percentage Inhibition Average 10 μM / Screening data (Relative infection to DMSO controls) Average 10 μM: SARS2, 10 μM; for Percentage Inhibition Average 25 μM / Screening data (Relative infection to DMSO controls) Average 25 μM: SARS2, 25 μM; for Percentage Inhibition Average 50 μM / Screening data (Relative infection to DMSO controls) Average 50 μM: SARS2, 50 μM; for Average (relative infection to DMSO over the 5 tested concentrations): SARS2, average over 1 to 50 uM; for Infection Data, Average, Mean: average of Exp 1-2 (SMW491, SMW492); for Infection Data, Average, Mean percentage infection relative to DMSO control: Average of Exp 1 (SMW491) and Exp 2 (SMW492); for Infection Data, Percentage Infection Relative to Appropriate DMSO Control: single well, avg background subtraction
[2] = system: cells (nuclei count); details: for Relative cell count to DMSO controls, Average 1 μM / Relative cell count to DMSO controls, Average 5 μM / Relative cell count to DMSO controls, Average 10 μM / Relative cell count to DMSO controls, Average 25 μM / Relative cell count to DMSO controls, Average 50 μM: toxicity data, 100=DMSO control; for Toxicity Data, Average, Mean percentage relative to DMSO control: Average of Exp 1 (SMW491) and Exp 2 (SMW492); for Relative cell count to DMSO controls, Average (for correlation analysis): average value over the 5 tested concentrations (1 to 50 uM); for Toxicity Data, Percentage Relative to Appropriate DMSO Control: single well

## CN(C)CCCN(Cc1cccs1)C(=O)c1cccs1 [SILCS40]
[1]
  SARS2 antiviral activity: inactive
  Percentage Inhibition Average 1 μM: −17.72%
  Screening data (Relative infection to DMSO controls) Average 1 μM: 117.72
  Percentage Inhibition Average 5 μM: 1.14%
  Screening data (Relative infection to DMSO controls) Average 5 μM: 98.86
  Percentage Inhibition Average 10 μM: −15.37%
  Screening data (Relative infection to DMSO controls) Average 10 μM: 115.37
  Percentage Inhibition Average 25 μM: −41.44%
  Screening data (Relative infection to DMSO controls) Average 25 μM: 141.44
  Percentage Inhibition Average 50 μM: 47.95%
  Screening data (Relative infection to DMSO controls) Average 50 μM: 52.05
  Average (relative infection to DMSO over the 5 tested concentrations): 105.09
[1]; Exp 1 (SMW491), 1 uM
  Percentage Infection Relative to Appropriate DMSO Control with Avg Background Subtraction: 161.72% and 144.95%
[1]; Exp 1 (SMW491), 5 uM
  Percentage Infection Relative to Appropriate DMSO Control with Avg Background Subtraction: 118.41% and 120.39%
[1]; Exp 1 (SMW491), 10 uM
  Percentage Infection Relative to Appropriate DMSO Control with Avg Background Subtraction: 125.55% and 160.68%
[1]; Exp 1 (SMW491), 25 uM
  Percentage Infection Relative to Appropriate DMSO Control with Avg Background Subtraction: 122.15% and 145.90%
[1]; Exp 1 (SMW491), 50 uM
  Percentage Infection Relative to Appropriate DMSO Control with Avg Background Subtraction: 46.53% and 56.51%
[1]; Exp 2 (SMW492), 1 uM
  Percentage Infection Relative to Appropriate DMSO Control with Avg Background Subtraction: 86.70% and 77.51%
[1]; Exp 2 (SMW492), 5 uM
  Percentage Infection Relative to Appropriate DMSO Control with Avg Background Subtraction: 88.04% and 68.60%
[1]; Exp 2 (SMW492), 10 uM
  Percentage Infection Relative to Appropriate DMSO Control with Avg Background Subtraction: 101.31% and 73.96%
[1]; Exp 2 (SMW492), 25 uM
  Percentage Infection Relative to Appropriate DMSO Control with Avg Background Subtraction: 185.38% and 112.33%
[1]; Exp 2 (SMW492), 50 uM
  Percentage Infection Relative to Appropriate DMSO Control with Avg Background Subtraction: 61.71% and 43.46%
[1]; n 4, 1 uM
  Infection Data, Average, Mean: 117.72%
[1]; n 4, 5 uM
  Infection Data, Average, Mean: 98.86%
[1]; n 4, 10 uM
  Infection Data, Average, Mean: 115.37%
[1]; n 4, 25 uM
  Infection Data, Average, Mean: 141.44%
[1]; n 4, 50 uM
  Infection Data, Average, Mean: 52.05%
[2]
  Relative cell count to DMSO controls, Average 1 μM: 86.49
  Relative cell count to DMSO controls, Average 5 μM: 96.33
  Relative cell count to DMSO controls, Average 10 μM: 92.49
  Relative cell count to DMSO controls, Average 25 μM: 83.93
  Relative cell count to DMSO controls, Average 50 μM: 117.52
  Relative cell count to DMSO controls, Average (for correlation analysis): 95.35
[2]; n=4, 1 uM
  Toxicity Data, Average, Mean percentage relative to DMSO control: 86.49%
[2]; n=4, 5 uM
  Toxicity Data, Average, Mean percentage relative to DMSO control: 96.33%
[2]; n=4, 10 uM
  Toxicity Data, Average, Mean percentage relative to DMSO control: 92.49%
[2]; n=4, 25 uM
  Toxicity Data, Average, Mean percentage relative to DMSO control: 83.93%
[2]; n=4, 50 uM
  Toxicity Data, Average, Mean percentage relative to DMSO control: 117.52%

## COc1ccc(CNCCc2ccccc2F)c(OCC(O)CN2CCN(C)CC2)c1 (stereo not drawn) [SILCS45]
[1]
  SARS2 antiviral activity: improved activity over SILCS41; also recorded: improved properties over SILCS46
  Percentage Inhibition Average 1 μM: 45.32%
  Screening data (Relative infection to DMSO controls) Average 1 μM: 54.68
  Percentage Inhibition Average 5 μM: 101.00%
  Screening data (Relative infection to DMSO controls) Average 5 μM: −1.00
  Percentage Inhibition Average 10 μM: 96.12%
  Screening data (Relative infection to DMSO controls) Average 10 μM: 3.88
  Percentage Inhibition Average 25 μM: 101.28%
  Screening data (Relative infection to DMSO controls) Average 25 μM: −1.28
  Percentage Inhibition Average 50 μM: 96.43%
  Screening data (Relative infection to DMSO controls) Average 50 μM: 3.57
  Average (relative infection to DMSO over the 5 tested concentrations): 11.97
[1]; n=4, 1 uM
  Infection Data, Average, Mean percentage infection relative to DMSO control: 54.68%
[1]; n=4, 5 uM
  Infection Data, Average, Mean percentage infection relative to DMSO control: −1.00%
[1]; n=4, 10 uM
  Infection Data, Average, Mean percentage infection relative to DMSO control: 3.88%
[1]; n=4, 25 uM
  Infection Data, Average, Mean percentage infection relative to DMSO control: −1.28%
[1]; n=4, 50 uM
  Infection Data, Average, Mean percentage infection relative to DMSO control: 3.57%
[1]; Exp 1 (SMW491), 1 uM
  Infection Data, Percentage Infection Relative to Appropriate DMSO Control: 102.92% and 112.49%
[1]; Exp 1 (SMW491), 5 uM
  Infection Data, Percentage Infection Relative to Appropriate DMSO Control: −1.31% and −0.48%
[1]; Exp 1 (SMW491), 10 uM
  Infection Data, Percentage Infection Relative to Appropriate DMSO Control: 0.12% and −3.09%
[1]; Exp 1 (SMW491), 25 uM
  Infection Data, Percentage Infection Relative to Appropriate DMSO Control: −0.41% and −2.68%
[1]; Exp 1 (SMW491), 50 uM
  Infection Data, Percentage Infection Relative to Appropriate DMSO Control: 1.17% and −2.53%
[1]; Exp 2 (SMW492), 1 uM
  Infection Data, Percentage Infection Relative to Appropriate DMSO Control: 3.72% and −0.43%
[1]; Exp 2 (SMW492), 5 uM
  Infection Data, Percentage Infection Relative to Appropriate DMSO Control: −2.43% and 0.22%
[1]; Exp 2 (SMW492), 10 uM
  Infection Data, Percentage Infection Relative to Appropriate DMSO Control: 7.69% and 10.80%
[1]; Exp 2 (SMW492), 25 uM
  Infection Data, Percentage Infection Relative to Appropriate DMSO Control: 0.00% and −2.03%
[1]; Exp 2 (SMW492), 50 uM
  Infection Data, Percentage Infection Relative to Appropriate DMSO Control: 7.94% and 7.68%
[1]; listed as D45
  SARS2 antiviral activity: more potent than D46
[2]
  Relative cell count to DMSO controls, Average 1 μM: 116.96
  Relative cell count to DMSO controls, Average 5 μM: 123.47
  Relative cell count to DMSO controls, Average 10 μM: 131.34
  Relative cell count to DMSO controls, Average 25 μM: 119.79
  Relative cell count to DMSO controls, Average 50 μM: 125.46
  Relative cell count to DMSO controls, Average (for correlation analysis): 123.40
[2]; n=4, 1 uM
  Toxicity Data, Average, Mean percentage relative to DMSO control: 116.96%
[2]; n=4, 5 uM
  Toxicity Data, Average, Mean percentage relative to DMSO control: 123.47%
[2]; n=4, 10 uM
  Toxicity Data, Average, Mean percentage relative to DMSO control: 131.34%
[2]; n=4, 25 uM
  Toxicity Data, Average, Mean percentage relative to DMSO control: 119.79%
[2]; n=4, 50 uM
  Toxicity Data, Average, Mean percentage relative to DMSO control: 125.46%
[2]; Exp 1 (SMW491), 1 uM
  Toxicity Data, Percentage Relative to Appropriate DMSO Control: 94% and 101%
[2]; Exp 1 (SMW491), 5 uM
  Toxicity Data, Percentage Relative to Appropriate DMSO Control: 121% and 114%
[2]; Exp 1 (SMW491), 10 uM
  Toxicity Data, Percentage Relative to Appropriate DMSO Control: 111% and 127%
[2]; Exp 1 (SMW491), 25 uM
  Toxicity Data, Percentage Relative to Appropriate DMSO Control: 95% and 123%
[2]; Exp 1 (SMW491), 50 uM
  Toxicity Data, Percentage Relative to Appropriate DMSO Control: 129% and 121%
[2]; Exp 2 (SMW492), 1 uM
  Toxicity Data, Percentage Relative to Appropriate DMSO Control: 139% and 133%
[2]; Exp 2 (SMW492), 5 uM
  Toxicity Data, Percentage Relative to Appropriate DMSO Control: 133% and 126%
[2]; Exp 2 (SMW492), 10 uM
  Toxicity Data, Percentage Relative to Appropriate DMSO Control: 137% and 151%
[2]; Exp 2 (SMW492), 25 uM
  Toxicity Data, Percentage Relative to Appropriate DMSO Control: 135% and 127%
[2]; Exp 2 (SMW492), 50 uM
  Toxicity Data, Percentage Relative to Appropriate DMSO Control: 126%
